Test results reported in PubChem BioAssay (NCI).
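These data come from cells grown in 96-well plates and exposed to compound for 48 hours at five concentrations. Abbreviation: GI50, concentration required for 50% inhibition of growth. TGI is the concentration that stops growth completely.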

Experiments:
Experiment in all cases: NCI tumour cell line growth inhibition, 48 h
786-0 renal = system: 786-0 renal
A549 NSCLC = system: A549 NSCLC
ACHN renal = system: ACHN renal
CAKI-1 renal = system: CAKI-1 renal
COLO 205 colon = system: COLO 205 colon
DU-145 prostate = system: DU-145 prostate
EKVX NSCLC = system: EKVX NSCLC
HCC-2998 colon = system: HCC-2998 colon
HCT-116 colon = system: HCT-116 colon
HCT-15 colon = system: HCT-15 colon
HOP-62 NSCLC = system: HOP-62 NSCLC
HOP-92 NSCLC = system: HOP-92 NSCLC
HS 578T breast = system: HS 578T breast
HT29 colon = system: HT29 colon
IGROV1 ovarian = system: IGROV1 ovarian
KM12 colon = system: KM12 colon
LOX IMVI melanoma = system: LOX IMVI melanoma
M14 melanoma = system: M14 melanoma
MALME-3M melanoma = system: MALME-3M melanoma
MCF7 breast = system: MCF7 breast
MDA-MB-231 breast = system: MDA-MB-231 breast
MDA-MB-435 = system: MDA-MB-435
MOLT-4 leukemia = system: MOLT-4 leukemia
NCI-H226 lung = system: NCI-H226 lung
NCI-H23 lung = system: NCI-H23 lung
NCI-H460 lung = system: NCI-H460 lung
NCI/ADR-RES ovarian = system: NCI/ADR-RES ovarian
OVCAR-3 ovarian = system: OVCAR-3 ovarian
OVCAR-4 ovarian = system: OVCAR-4 ovarian
OVCAR-5 ovarian = system: OVCAR-5 ovarian
OVCAR-8 ovarian = system: OVCAR-8 ovarian
PC-3 prostate = system: PC-3 prostate
RPMI-8226 leukemia = system: RPMI-8226 leukemia
RXF 393 renal = system: RXF 393 renal
SF-268 CNS = system: SF-268 CNS
SF-295 CNS = system: SF-295 CNS
SF-539 CNS = system: SF-539 CNS
SK-MEL-2 melanoma = system: SK-MEL-2 melanoma
SK-MEL-28 melanoma = system: SK-MEL-28 melanoma
SK-MEL-5 melanoma = system: SK-MEL-5 melanoma
SK-OV-3 ovarian = system: SK-OV-3 ovarian
SN12C renal = system: SN12C renal
SNB-19 CNS = system: SNB-19 CNS
SNB-75 CNS = system: SNB-75 CNS
SW-620 colon = system: SW-620 colon
T-47D breast = system: T-47D breast
TK-10 renal = system: TK-10 renal
U251 CNS = system: U251 CNS
UACC-257 melanoma = system: UACC-257 melanoma
UACC-62 melanoma = system: UACC-62 melanoma
UO-31 renal = system: UO-31 renal
A498 renal = system: A498 renal
BT-549 breast = system: BT-549 breast
CCRF-CEM leukemia = system: CCRF-CEM leukemia
HL-60(TB) leukemia = system: HL-60(TB) leukemia
K-562 leukemia = system: K-562 leukemia
NCI-H522 lung = system: NCI-H522 lung
SR leukemia = system: SR leukemia

## C=C1N(C=O)C(C)(C)N(O)C1(C)C
786-0 renal
  TGI: > 100 µM
A549 NSCLC
  TGI: > 100 µM
ACHN renal
  TGI: > 100 µM
CAKI-1 renal
  TGI: > 100 µM
COLO 205 colon
  TGI: > 100 µM
DU-145 prostate
  TGI: > 100 µM
EKVX NSCLC
  TGI: > 100 µM
HCC-2998 colon
  TGI: > 100 µM
HCT-116 colon
  TGI: > 100 µM
HCT-15 colon
  TGI: > 100 µM
HOP-62 NSCLC
  TGI: > 100 µM
HOP-92 NSCLC
  TGI: > 100 µM
HS 578T breast
  TGI: > 100 µM
HT29 colon
  TGI: > 100 µM
IGROV1 ovarian
  TGI: > 100 µM
KM12 colon
  TGI: > 100 µM
LOX IMVI melanoma
  TGI: > 100 µM
M14 melanoma
  TGI: > 100 µM
MALME-3M melanoma
  TGI: > 100 µM
MCF7 breast
  TGI: > 100 µM
MDA-MB-231 breast
  TGI: > 100 µM
MDA-MB-435
  TGI: > 100 µM
MOLT-4 leukemia
  TGI: 84.4 µM
NCI-H226 lung
  TGI: > 100 µM
NCI-H23 lung
  TGI: > 100 µM
NCI-H460 lung
  TGI: > 100 µM
NCI/ADR-RES ovarian
  TGI: > 100 µM
OVCAR-3 ovarian
  TGI: > 100 µM
OVCAR-4 ovarian
  TGI: > 100 µM
OVCAR-5 ovarian
  TGI: > 100 µM
OVCAR-8 ovarian
  TGI: > 100 µM
PC-3 prostate
  TGI: > 100 µM
RPMI-8226 leukemia
  TGI: > 100 µM
RXF 393 renal
  TGI: > 100 µM
SF-268 CNS
  TGI: > 100 µM
SF-295 CNS
  TGI: > 100 µM
SF-539 CNS
  TGI: > 100 µM
SK-MEL-2 melanoma
  TGI: > 100 µM
SK-MEL-28 melanoma
  TGI: > 100 µM
SK-MEL-5 melanoma
  TGI: > 100 µM
SK-OV-3 ovarian
  TGI: > 100 µM
SN12C renal
  TGI: > 100 µM
SNB-19 CNS
  TGI: > 100 µM
SNB-75 CNS
  TGI: > 100 µM
SW-620 colon
  TGI: > 100 µM
T-47D breast
  TGI: > 100 µM
TK-10 renal
  TGI: > 100 µM
U251 CNS
  TGI: > 100 µM
UACC-257 melanoma
  TGI: > 100 µM
UACC-62 melanoma
  TGI: > 100 µM
UO-31 renal
  TGI: > 100 µM

## CCCCCCCCCCCCCCCCCC1=NCCN1C(=O)OCCO
A498 renal
  GI50: 9.29 µM
  TGI: 56.7 µM
BT-549 breast
  GI50: 3.19 µM
  TGI: 18.3 µM
CAKI-1 renal
  GI50: 1.75 µM
  TGI: 3.83 µM
DU-145 prostate
  GI50: 1.84 µM
  TGI: 3.37 µM
EKVX NSCLC
  GI50: 1.75 µM
  TGI: 4.24 µM
HS 578T breast
  GI50: 4.08 µM
  TGI: > 100 µM
MALME-3M melanoma
  GI50: 12.9 µM
  TGI: 42.9 µM
NCI-H226 lung
  GI50: 6.24 µM
  TGI: 45.2 µM
NCI-H23 lung
  GI50: 5.64 µM
  TGI: > 100 µM
OVCAR-5 ovarian
  GI50: 3.35 µM
  TGI: 26.4 µM
SK-MEL-28 melanoma
  GI50: 5.92 µM
  TGI: 24.5 µM
SK-MEL-5 melanoma
  GI50: 2.93 µM
  TGI: 10.3 µM
SK-OV-3 ovarian
  GI50: 2.5 µM
  TGI: 7.04 µM
SNB-19 CNS
  GI50: 3.39 µM
  TGI: 12.9 µM
T-47D breast
  GI50: 2.89 µM
  TGI: 9.48 µM
UACC-257 melanoma
  GI50: 2.28 µM
  TGI: 5.68 µM
UACC-62 melanoma
  GI50: 1.87 µM
  TGI: 3.46 µM

## Cc1nc2sccn2c1-c1csc(Nc2cccc(Cl)c2C)n1
786-0 renal
  GI50: 9.62 µM
  TGI: 79.7 µM
A498 renal
  GI50: 1.45 µM
  TGI: 17.5 µM
A549 NSCLC
  GI50: 3.23 µM
  TGI: 49.2 µM
ACHN renal
  GI50: 6.84 µM
  TGI: > 100 µM
BT-549 breast
  GI50: 3.44 µM
  TGI: 20.5 µM
CAKI-1 renal
  GI50: 3.73 µM
  TGI: 33.3 µM
CCRF-CEM leukemia
  GI50: 4.01 µM
  TGI: 82.1 µM
COLO 205 colon
  GI50: 6.75 µM
  TGI: 43.7 µM
DU-145 prostate
  GI50: 8.45 µM
  TGI: 72 µM
HCC-2998 colon
  GI50: 10.4 µM
  TGI: 40.7 µM
HCT-116 colon
  GI50: 4.67 µM
  TGI: 20.1 µM
HCT-15 colon
  GI50: 3.62 µM
  TGI: 31.9 µM
HL-60(TB) leukemia
  GI50: 3.43 µM
  TGI: 19.3 µM
HOP-62 NSCLC
  GI50: 10.3 µM
  TGI: > 100 µM
HS 578T breast
  GI50: 4.56 µM
  TGI: 51.2 µM
HT29 colon
  GI50: 3.29 µM
  TGI: 14.7 µM
IGROV1 ovarian
  GI50: 8.83 µM
  TGI: 73.2 µM
K-562 leukemia
  GI50: 2.12 µM
  TGI: > 100 µM
KM12 colon
  GI50: 3.79 µM
  TGI: 21.8 µM
LOX IMVI melanoma
  GI50: 6.5 µM
  TGI: 20.6 µM
M14 melanoma
  GI50: 5.04 µM
  TGI: 28.5 µM
MCF7 breast
  GI50: 3.34 µM
  TGI: 25.6 µM
MDA-MB-231 breast
  GI50: 3.62 µM
  TGI: 20.2 µM
MDA-MB-435
  GI50: 1.95 µM
  TGI: 6.47 µM
MOLT-4 leukemia
  GI50: 4.22 µM
  TGI: 26.8 µM
NCI-H226 lung
  GI50: 3.24 µM
  TGI: 48.5 µM
NCI-H460 lung
  GI50: 3.58 µM
  TGI: 20.3 µM
NCI-H522 lung
  GI50: 3.94 µM
  TGI: 26.5 µM
NCI/ADR-RES ovarian
  GI50: 3.45 µM
  TGI: 45.2 µM
OVCAR-3 ovarian
  GI50: 5.23 µM
  TGI: 32.2 µM
OVCAR-4 ovarian
  GI50: 3.05 µM
  TGI: > 100 µM
OVCAR-5 ovarian
  GI50: 24 µM
  TGI: > 100 µM
OVCAR-8 ovarian
  GI50: 5.84 µM
  TGI: 47.1 µM
PC-3 prostate
  GI50: 3.72 µM
  TGI: 87.3 µM
RPMI-8226 leukemia
  GI50: 3.83 µM
  TGI: 33.3 µM
RXF 393 renal
  GI50: 4.19 µM
  TGI: 37.6 µM
SF-268 CNS
  GI50: 11.9 µM
  TGI: 74.4 µM
SF-295 CNS
  GI50: 1.72 µM
  TGI: 10.6 µM
SF-539 CNS
  GI50: 6.61 µM
  TGI: 25.3 µM
SK-MEL-2 melanoma
  GI50: 3.78 µM
  TGI: 14 µM
SK-MEL-28 melanoma
  GI50: 5.67 µM
  TGI: 44.1 µM
SK-MEL-5 melanoma
  GI50: 1.52 µM
  TGI: 3.92 µM
SK-OV-3 ovarian
  GI50: 21.2 µM
  TGI: > 100 µM
SN12C renal
  GI50: 6.06 µM
  TGI: > 100 µM
SNB-19 CNS
  GI50: 12.6 µM
  TGI: > 100 µM
SNB-75 CNS
  GI50: 3.19 µM
  TGI: 28.3 µM
SR leukemia
  GI50: 3.46 µM
  TGI: 53.1 µM
SW-620 colon
  GI50: 3.91 µM
  TGI: 24.3 µM
U251 CNS
  GI50: 4.37 µM
  TGI: 19.6 µM
UACC-257 melanoma
  GI50: 2.52 µM
  TGI: 12.5 µM
UACC-62 melanoma
  GI50: 3.93 µM
  TGI: 19.8 µM
UO-31 renal
  GI50: 3.05 µM
  TGI: 23.7 µM
